In ChEMBL document CHEMBL1158282, “Iridoid Molluscicidal Compounds from Apodytes dimidiata” (1996):
≈ marks a conversion by molar mass, not a printed value.

System: Bulinus africanus
Assay: Molluscicidal activity against Bulinus africanus
Format: functional
Conditions: for LC50: Bulinus africanus, read-out: LD50 (the source's name)

COC(=O)C1=CO[C@@H](O)[C@@H]2C(COC(C)=O)=CC[C@H]12
LD90: 39.4 ppm | LC50: 21.7 µg/mL (≈ 81 µM)

COC(=O)C1=CO[C@@H](O)[C@@H]2C(CO)=CC[C@H]12 [GENIPIN]
LD90: 32.57 ppm | LC50: 25.3 µg/mL (≈ 112 µM)
